# Reference: EPA's ToxRefDB 2
# Key:
# rabbit [1] = details: Prenatal developmental toxicity study, Oral, Gavage/Intubation, dose end: 19 GD
# rat [2] = details: Chronic toxicity; sprague dawley; Oral; Gavage/Intubation; dose end: 182 day; group: systemic; systemic / clinical chemistry / glucose / glucose + systemic / clinical chemistry / triglycerides / triglycerides + systemic / in life …
# dog [3] = details: Sub-acute repeat dose toxicity; beagle; Oral; Gavage/Intubation; dose end: 30 day; group: systemic; systemic / clinical chemistry / potassium / potassium + systemic / in life observation / clinical signs / emesis + systemic / in life …
# rat [4] = details: Sub-acute repeat dose toxicity, sprague dawley, Oral, Gavage/Intubation, dose end: 30 day, group: systemic
# dog [5] = details: Chronic toxicity; beagle; Oral; Gavage/Intubation; dose end: 364 day; group: systemic; systemic / in life observation / body weight / body weight + systemic / in life observation / clinical signs / arrhythmia + systemic / in …
# rat [6] = details: Fertility (Segment I), sprague dawley, Oral, Gavage/Intubation, dose end: 1 generation, group: parental
# rabbit [7] = details: Sub-acute repeat dose toxicity; new zealand white; Oral; Gavage/Intubation; dose end: 5 day; group: systemic; systemic / in life observation / body weight / body weight + systemic / in life observation / food consumption / food consumption
# dog [8] = details: Sub-acute repeat dose toxicity; beagle; Oral; Gavage/Intubation; dose end: 10 day; group: systemic; systemic / in life observation / clinical signs / abnormal feces + systemic / in life observation / clinical signs / salivation + systemic…
# rat [9] = details: Sub-acute repeat dose toxicity, sprague dawley, Oral, Feed, dose end: 14 day, group: systemic
# rat [10] = details: Sub-acute repeat dose toxicity, sprague dawley, Oral, Gavage/Intubation, dose end: 14 day, group: systemic
# rat [11] = details: Fertility (Segment I), sprague dawley, Oral, Gavage/Intubation, dose end: 1 generation, group: parental; remark: listed apart in the source
# mouse = details: Sub-acute repeat dose toxicity, Oral, Feed, dose end: 14 day, group: systemic
# [12] = group: developmental, developmental / developmental malformation / bone / delayed ossification + systemic / in life observation / body weight / fetal weight
# [13] = group: maternal, systemic / in life observation / body weight / body weight gain + systemic / in life observation / food consumption / food consumption
# [14] = systemic / clinical chemistry / 5' nucleotidase / 5' nucleotidase + systemic / clinical chemistry / [other] / [other] + systemic / clinical …
# [15] = systemic / in life observation / body weight / body weight + systemic / in life observation / clinical signs / salivation + systemic / in …
# [16] = systemic / in life observation / body weight / body weight + systemic / in life observation / food consumption / food consumption
# [17] = systemic / in life observation / food consumption / food consumption + systemic / in life observation / body weight / body weight
# [18] = systemic / in life observation / food consumption / food consumption + systemic / in life observation / body weight / body weight + systemic…
# [19] = systemic / hematology / erythrocyte (rbc) count differential / erythrocyte (rbc) + systemic / hematology / hematocrit (hct) / hematocrit (…
# [20] = systemic / in life observation / clinical signs / salivation
# [21] = systemic / in life observation / body weight / body weight + systemic / in life observation / body weight / body weight gain + systemic / in…
compound,measurement,setting,value
O=C(Cc1ccc(Cl)c(Cl)c1)N(O)[C@H](CN1CC[C@H](O)C1)c1ccccc1,LOAEL,rabbit [1]; [12],> 5 mg/kg/day
same,NOAEL,rabbit [1]; [12],≥ 5 mg/kg/day
same,LOAEL,rabbit [1]; [13],> 5 mg/kg/day
same,NOAEL,rabbit [1]; [13],≥ 5 mg/kg/day
same,LOAEL,rat [2],> 150 mg/kg/day
same,NEL,rat [2],1 mg/kg/day
same,NOAEL,rat [2],≥ 150 mg/kg/day
same,LOAEL,dog [3],> 1 mg/kg/day
same,NOAEL,dog [3],≥ 1 mg/kg/day
same,LOAEL,rat [4]; [14],> 150 mg/kg/day
same,NOAEL,rat [4]; [14],≥ 150 mg/kg/day
same,NEL,rat [4]; systemic / clinical chemistry / [other] / [other] + systemic / clinical chemistry / albumin / albumin + systemic / clinical chemistry / …,1 mg/kg/day
same,LEL,dog [5],1 mg/kg/day
same,LOAEL,dog [5],> 1 mg/kg/day
same,NEL,dog [5],< 1 mg/kg/day
same,NOAEL,dog [5],≥ 1 mg/kg/day
same,LOAEL,rat [6]; [15],> 50 mg/kg/day
same,NEL,rat [6]; [15],1 mg/kg/day
same,NOAEL,rat [6]; [15],≥ 50 mg/kg/day
same,LEL,rat [6]; [16],10 mg/kg/day
same,LEL,rabbit [7],1 mg/kg/day
same,LOAEL,rabbit [7],> 150 mg/kg/day
same,NEL,rabbit [7],< 1 mg/kg/day
same,NOAEL,rabbit [7],≥ 150 mg/kg/day
same,LEL,dog [8],1 mg/kg/day
same,LOAEL,dog [8],> 1 mg/kg/day
same,NEL,dog [8],< 1 mg/kg/day
same,NOAEL,dog [8],≥ 1 mg/kg/day
same,LEL,rat [9]; [17],1 mg/kg/day
same,NEL,rat [9]; [17],< 1 mg/kg/day
same,LOAEL,rat [9]; [18],> 300 mg/kg/day
same,NOAEL,rat [9]; [18],≥ 300 mg/kg/day
same,LOAEL,rat [10]; [19],> 500 mg/kg/day
same,NOAEL,rat [10]; [19],≥ 500 mg/kg/day
same,LEL,rat [10]; [20],25 mg/kg/day
same,NEL,rat [10]; [20],< 25 mg/kg/day
same,LOAEL,rat [11]; [15],> 50 mg/kg/day
same,NEL,rat [11]; [15],1 mg/kg/day
same,NOAEL,rat [11]; [15],≥ 50 mg/kg/day
same,LEL,rat [11]; [16],10 mg/kg/day
same,LOAEL,mouse; [21],> 1000 mg/kg/day
same,NOAEL,mouse; [21],≥ 1000 mg/kg/day
same,LEL,mouse; systemic / in life observation / clinical signs / hunched posture,300 mg/kg/day
